Measured values as given in the NIST ThermoML archive (doi:10.1016/j.jct.2013.08.016).

Columns and labels:
[1] = mn = molality of the nth substance listed, in mol/kg; conditions: 101.3 kPa, Liquid; for viscosity: Capillary tube (Ostwald / Ubbelohde) method; for mass density: Pycnometric method; for speed of sound: Single path-length method
[2] = refractive index (Na D-line) (dimensionless); mn = molality of the nth substance listed, in mol/kg; conditions: 101.3 kPa, Liquid, Standard Abbe refractometry

O=C1O[C@H]([C@@H](O)CO)C(O)=C1O [L-ascorbic acid] + O
Conditions | mass density, [1] [kg/m3] | refractive index, [2] | speed of sound, [1] [m/s] | viscosity, [1] [mPa·s]
278.15 K, m1 = 0.0502 | 1003.69 | 1.3353 | 1429.5 | 1.566
278.15 K, m1 = 0.0997 | 1007.29 | 1.3365 | 1432.8 | 1.606
278.15 K, m1 = 0.1384 | 1010.1 | 1.3378 | 1434.7 | 1.634
278.15 K, m1 = 0.1964 | 1014.25 | 1.3394 | 1438.5 | 1.668
278.15 K, m1 = 0.2338 | 1016.85 | 1.3405 | 1440.5 | 1.699
278.15 K, m1 = 0.2927 | 1020.96 | 1.3419 | 1443.6 | 1.737
278.15 K, m1 = 0.3392 | 1024.27 | 1.3434 | 1445.3 | 1.77
278.15 K, m1 = 0.4069 | 1028.56 | 1.3448 | 1448.9 | 1.813
278.15 K, m1 = 0.4383 | 1030.63 | 1.3459 | 1451.3 | 1.842
278.15 K, m1 = 0.4932 | 1034.36 | 1.3472 | 1454.6 | 1.874
278.15 K, m1 = 0.5541 | 1038.24 | 1.3489 | 1458.2 | 1.921
278.15 K, m1 = 0.6251 | 1042.79 | 1.351 | 1463.2 | 1.974
278.15 K, m1 = 0.711 | 1048.36 | 1.3533 | 1467.3 | 2.033
278.15 K, m1 = 0.7457 | 1050.45 | 1.3544 | 1469.1 | 2.05
288.15 K, m1 = 0.0496 | 1002.68 | 1.3348 | 1468.6 | 1.165
288.15 K, m1 = 0.1009 | 1006.33 | 1.3364 | 1471.2 | 1.184
288.15 K, m1 = 0.1408 | 1009.14 | 1.3378 | 1473.2 | 1.205
288.15 K, m1 = 0.1952 | 1012.94 | 1.339 | 1476.3 | 1.236
288.15 K, m1 = 0.2426 | 1016.2 | 1.34 | 1479 | 1.257
288.15 K, m1 = 0.2997 | 1020.14 | 1.3417 | 1481.7 | 1.282
288.15 K, m1 = 0.3402 | 1022.83 | 1.3428 | 1483.8 | 1.288
288.15 K, m1 = 0.3936 | 1026.48 | 1.3441 | 1487.6 | 1.325
288.15 K, m1 = 0.4492 | 1030.03 | 1.3456 | 1489.1 | 1.353
288.15 K, m1 = 0.5096 | 1034.09 | 1.3471 | 1492.7 | 1.386
288.15 K, m1 = 0.5782 | 1038.38 | 1.3489 | 1496.4 | 1.424
288.15 K, m1 = 0.6302 | 1041.56 | 1.3499 | 1499.1 | 1.444
288.15 K, m1 = 0.6984 | 1046.01 | 1.352 | 1501.6 | 1.475
288.15 K, m1 = 0.7426 | 1048.42 | 1.3529 | 1503.6 | 1.494
298.15 K, m1 = 0.0502 | 1000.6 | 1.3339 | 1498.9 | 0.9072
298.15 K, m1 = 0.1017 | 1004.18 | 1.3354 | 1501.5 | 0.9235
298.15 K, m1 = 0.1409 | 1006.8 | 1.3365 | 1503.4 | 0.935
298.15 K, m1 = 0.1988 | 1010.73 | 1.338 | 1505.2 | 0.9544
298.15 K, m1 = 0.2402 | 1013.54 | 1.3391 | 1506.7 | 0.9688
298.15 K, m1 = 0.2987 | 1017.33 | 1.3407 | 1508.9 | 0.9928
298.15 K, m1 = 0.3421 | 1020.12 | 1.3418 | 1510.9 | 1.007
298.15 K, m1 = 0.4046 | 1024.34 | 1.3431 | 1514.2 | 1.028
298.15 K, m1 = 0.4536 | 1027.31 | 1.3443 | 1518.2 | 1.046
298.15 K, m1 = 0.5119 | 1030.98 | 1.3461 | 1520 | 1.068
298.15 K, m1 = 0.5788 | 1035.16 | 1.3478 | 1521.8 | 1.093
298.15 K, m1 = 0.6259 | 1038.06 | 1.3497 | 1523.6 | 1.111
298.15 K, m1 = 0.6974 | 1042.37 | 1.3508 | 1525.5 | 1.141
298.15 K, m1 = 0.7486 | 1045.37 | 1.3518 | 1527.3 | 1.164

O=C1O[C@H]([C@@H](O)CO)C([O-])=C1O.[Na+] [sodium L-ascorbate] + O
Conditions | mass density, [1] [kg/m3] | refractive index, [2] | speed of sound, [1] [m/s] | viscosity, [1] [mPa·s]
278.15 K, m1 = 0.0495 | 1005.25 | 1.3359 | 1432.4 | 1.564
278.15 K, m1 = 0.102 | 1010.89 | 1.338 | 1438.9 | 1.61
278.15 K, m1 = 0.1378 | 1014.72 | 1.3388 | 1443.6 | 1.633
278.15 K, m1 = 0.2009 | 1021.3 | 1.3411 | 1451.6 | 1.693
278.15 K, m1 = 0.2329 | 1024.63 | 1.3428 | 1456.6 | 1.727
278.15 K, m1 = 0.2951 | 1030.95 | 1.3448 | 1463.8 | 1.787
278.15 K, m1 = 0.3361 | 1035.04 | 1.3461 | 1469.1 | 1.828
278.15 K, m1 = 0.3968 | 1041.02 | 1.3485 | 1478.2 | 1.891
278.15 K, m1 = 0.4287 | 1044.29 | 1.3498 | 1480 | 1.925
278.15 K, m1 = 0.4929 | 1050.46 | 1.3519 | 1489.1 | 1.995
278.15 K, m1 = 0.5436 | 1055.28 | 1.3536 | 1494.6 | 2.052
278.15 K, m1 = 0.6275 | 1063.15 | 1.3564 | 1503.6 | 2.152
278.15 K, m1 = 0.6583 | 1065.96 | 1.3571 | 1509.1 | 2.192
278.15 K, m1 = 0.7407 | 1073.42 | 1.3602 | 1518.2 | 2.291
288.15 K, m1 = 0.0403 | 1003.38 | 1.3351 | 1470.4 | 1.167
288.15 K, m1 = 0.1263 | 1012.42 | 1.3373 | 1479.2 | 1.209
288.15 K, m1 = 0.1604 | 1015.94 | 1.3392 | 1483.6 | 1.24
288.15 K, m1 = 0.2478 | 1024.69 | 1.3423 | 1494.4 | 1.303
288.15 K, m1 = 0.301 | 1029.91 | 1.3439 | 1499.1 | 1.339
288.15 K, m1 = 0.3509 | 1034.82 | 1.346 | 1505.9 | 1.37
288.15 K, m1 = 0.4457 | 1043.86 | 1.3493 | 1518.2 | 1.45
288.15 K, m1 = 0.5156 | 1050.33 | 1.3502 | 1525.5 | 1.504
288.15 K, m1 = 0.5987 | 1057.95 | 1.3543 | 1532.7 | 1.575
288.15 K, m1 = 0.6446 | 1062.31 | 1.3558 | 1540 | 1.608
288.15 K, m1 = 0.6909 | 1066.4 | 1.3572 | 1545.5 | 1.652
288.15 K, m1 = 0.7466 | 1071.4 | 1.3592 | 1552 | 1.708
298.15 K, m1 = 0.0503 | 1002.31 | 1.3344 | 1501.9 | 0.9169
298.15 K, m1 = 0.1005 | 1007.49 | 1.3362 | 1507.2 | 0.9381
298.15 K, m1 = 0.1492 | 1012.47 | 1.3378 | 1512.6 | 0.9628
298.15 K, m1 = 0.1993 | 1017.5 | 1.3397 | 1518.1 | 0.9898
298.15 K, m1 = 0.2452 | 1022.1 | 1.3414 | 1522.5 | 1.007
298.15 K, m1 = 0.301 | 1027.58 | 1.3434 | 1527.6 | 1.04
298.15 K, m1 = 0.3456 | 1031.8 | 1.3449 | 1533.1 | 1.062
298.15 K, m1 = 0.4112 | 1038.01 | 1.347 | 1539.9 | 1.097
298.15 K, m1 = 0.4397 | 1040.84 | 1.3479 | 1542 | 1.113
298.15 K, m1 = 0.4892 | 1045.65 | 1.3495 | 1547.2 | 1.146
298.15 K, m1 = 0.5491 | 1051.09 | 1.3516 | 1554.4 | 1.183
298.15 K, m1 = 0.6035 | 1056.1 | 1.3534 | 1559.1 | 1.223
298.15 K, m1 = 0.6697 | 1062.08 | 1.3553 | 1565.3 | 1.257
298.15 K, m1 = 0.7314 | 1067.47 | 1.3571 | 1572.6 | 1.301
